Measured values reported in PubChem BioAssay AID2060904 (Molecular Pharmacology Branch, DTP, NCI, 2025).

Tested on: 349418-098-R-PDC complex spheroid viability
Test: Anticancer human tumor 349418-098-R-PDC patient-derived lung adenocarcinoma cell line growth inhibition [RAS]
Conditions: for IC50: curve of first compound; for viability, T/C: stronger effect = lower value
Method in brief: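 Multi-cell-type spheroids: tumor cells plus HUVEC endothelial cells and mesenchymal stem cells. RAS-pathway inhibitors were combined with targeted agents, each dosed in half-log steps down from clinical Cmax, or from 10 microM when Cmax was unknown.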
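Also: spheroids exposed to compound for seven days before viability readout.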

CCN1CCN(Cc2ccc(Nc3ncc(F)c(-c4cc(F)c5nc(C)n(C(C)C)c5c4)n3)nc2)CC1 + C=CC(=O)N1CCN(c2nc(OCC3CCCN3C)nc3c(F)c(-c4nc(N)cc(C)c4C(F)(F)F)c(Cl)cc23)C(C)C1
IC50 (second compound 0.00316 µM): 17.3 nM
IC50 (second compound 0.01 µM): 23.4 nM
IC50 (second compound 0.0316 µM): 30.2 nM
IC50 (second compound 0.1 µM): 11.3 nM
IC50 (second compound 0.316 µM): 20.8 nM
IC50 (second compound 1 µM): 14.1 nM
viability, T/C (second compound 0.00316 µM, first compound 0.00316 µM): 77.6%
viability, T/C (second compound 0.00316 µM, first compound 0.01 µM): 62.2%
viability, T/C (second compound 0.00316 µM, first compound 0.0316 µM): 35.9%
viability, T/C (second compound 0.00316 µM, first compound 0.1 µM): 25.7%
viability, T/C (second compound 0.00316 µM, first compound 0.316 µM): 20.9%
viability, T/C (second compound 0.00316 µM, first compound 1 µM): 15.7%
viability, T/C (second compound 0.01 µM, first compound 0.00316 µM): 89.4%
viability, T/C (second compound 0.01 µM, first compound 0.01 µM): 71.3%
viability, T/C (second compound 0.01 µM, first compound 0.0316 µM): 43.4%
viability, T/C (second compound 0.01 µM, first compound 0.1 µM): 22.1%
viability, T/C (second compound 0.01 µM, first compound 0.316 µM): 22.5%
viability, T/C (second compound 0.01 µM, first compound 1 µM): 17%
viability, T/C (second compound 0.0316 µM, first compound 0.00316 µM): 78.8%
viability, T/C (second compound 0.0316 µM, first compound 0.01 µM): 96.2%
viability, T/C (second compound 0.0316 µM, first compound 0.0316 µM): 48.4%
viability, T/C (second compound 0.0316 µM, first compound 0.1 µM): 22.5%
viability, T/C (second compound 0.0316 µM, first compound 0.316 µM): 21.6%
viability, T/C (second compound 0.0316 µM, first compound 1 µM): 17.5%
viability, T/C (second compound 0.1 µM, first compound 0.00316 µM): 72.8%
viability, T/C (second compound 0.1 µM, first compound 0.01 µM): 51.2%
viability, T/C (second compound 0.1 µM, first compound 0.0316 µM): 35.6%
viability, T/C (second compound 0.1 µM, first compound 0.1 µM): 20.6%
viability, T/C (second compound 0.1 µM, first compound 0.316 µM): 20.8%
viability, T/C (second compound 0.1 µM, first compound 1 µM): 17.4%
viability, T/C (second compound 0.316 µM, first compound 0.00316 µM): 82.8%
viability, T/C (second compound 0.316 µM, first compound 0.01 µM): 74%
viability, T/C (second compound 0.316 µM, first compound 0.0316 µM): 35.2%
viability, T/C (second compound 0.316 µM, first compound 0.1 µM): 34.3%
viability, T/C (second compound 0.316 µM, first compound 0.316 µM): 25.2%
viability, T/C (second compound 0.316 µM, first compound 1 µM): 18.1%
viability, T/C (second compound 1 µM, first compound 0.00316 µM): 61.5%
viability, T/C (second compound 1 µM, first compound 0.01 µM): 49.1%
viability, T/C (second compound 1 µM, first compound 0.0316 µM): 46.7%
viability, T/C (second compound 1 µM, first compound 0.1 µM): 29%
viability, T/C (second compound 1 µM, first compound 0.316 µM): 22.1%
viability, T/C (second compound 1 µM, first compound 1 µM): 19.1%
